The values below are quoted from earlier work in paper PMC8329336, “The Role of Co-Signaling Molecules in Psoriasis and Their Implications for Targeted Treatment” (Frontiers in Pharmacology, 2021).

Like-named read-outs stand apart in the source and are kept apart here.

The test system of data set [1] is ICAM-1. Details: method as in Wen et al., 2014; Xiong et al., 2015. The following applies: ref Wen et al., 2014; Xiong et al., 2015.
In data set [2] the test system is p40 subunits of IL-23 and IL-12. Also noted: method as in Lebwohl et al., 2015. The following applies: through binding to the p40 subunits of IL-23 and IL-12; ref Lebwohl et al., 2015.
Data set [3] relates to human T cells. Also noted: method as in Kuschei et al., 2011. The following applies: ref Kuschei et al., 2011.
Data set [4] concerns LFA-1. Also noted: method as in Guttman-Yassky et al., 2008; Grönholm et al., 2016. The following applies: ref Guttman-Yassky et al., 2008; Grönholm et al., 2016.
The subject of data set [5] is LFA-1. The following applies: led to withdrawal from the US market in 2009; ref Kuschei et al., 2011; Hsu and Tsai, 2020.
For data set [6], the system named is OX40.
The test system of data set [7] is CD40. Particulars: for Efficacy (PASI scores of psoriasis) / Adverse event: patients with psoriasis, ref Anil Kumar et al. (2018); for Efficacy (PASI scores of psoriasis): Phase I; for Adverse event: limited number of patients.
Setting [8] is: Phase I, ref Papp et al. (2017).

As for `CC(C)=CCC[C@]1(C)C=Cc2c(O)c3c(c(CC=C(C)C)c2O1)O[C@]12C(=C[C@@H]4C[C@H]1C(C)(C)O[C@@]2(C/C=C(/C)C(=O)O)C4=O)C3=O` [gambogic acid], in data set [1], the effect on psoriasis result is listed as “improve” and the “expression of ICAM-1” value was “inhibiting”.
As for `CC1(C)[C@@H](O[C@H]2O[C@H](C(=O)O)[C@@H](O)[C@H](O)[C@H]2O[C@@H]2O[C@H](C(=O)O)[C@@H](O)[C@H](O)[C@H]2O)CC[C@]2(C)[C@H]3C(=O)C=C4[C@@H]5C[C@@](C)(C(=O)O)CC[C@]5(C)CC[C@@]4(C)[C@]3(C)CC[C@@H]12` [glycyrrhizin], in data set [1], the effect on psoriasis entry was “improve” and the “expression of ICAM-1” value is on record as “inhibiting”.
For “Anti-p40: approved drug for psoriasis treatment, binds to the p40 subunits of IL-23 and IL-12”, in data set [2], the “IL-23A-induced IL-17A production” value is given as “inhibit”.
For the molecule “Efalizumab: humanized monoclonal antibody against LFA-1”, the “co-stimulatory molecules ICOS, OX40, CD27, and 4-1BB” value in data set [3] (human T cells) was “downregulating”. For the same molecule, the “proliferation and cytokine production of human T cells” value in data set [3] was “potently inhibiting”. Besides, in data set [4], the “cell-surface molecules involved in T cell activation (CD3, TCR, CD4, CD8, CD28, integrin VLA-4)” value was “downregulate”. For the same molecule, the Adverse event entry in data set [5] is listed as “Progressive multifocal leukoencephalopathy”.
As for “KHK4083: fully human monoclonal antibody against OX40”, in data set [6] (setting [8]), the Adverse event entry is “Mild or moderate chills, infusion site reactions” and the PASI scores entry is “PASI scores↓”. Besides, the efficacy result in data set [6] (highest dose (10 mg/ kg), patients with mild to moderate plaque psoriasis, ref Papp et al., 2017) is recorded as “good efficacy”. Moreover, the safety and tolerability result in data set [6] (phase I study, ref Papp et al., 2017) was “safe and well tolerated”.

B1: Bleselumab: fully human IgG4 monoclonal antibody (mAb) that targets CD40 (antibody, chains of the INN, looked up, V domains shown)
VH: QLQLQESGPGLLKPSETLSLTCTVSGGSISSPGYYGGWIRQPPGKGLEWIGSIYKSGSTYHNPSLKSRVTISVDTSKNQFSLKLSSVTAADTAVYYCTRPVVRYFGWFDPWGQGTLVTVSS
VL: AIQLTQSPSSLSASVGDRVTITCRASQGISSALAWYQQKPGKAPKLLIYDASNLESGVPSRFSGSGSGTDFTLTISSLQPEDFATYYCQQFNSYPTFGQGTKVEIK
Turning to B1, the clinically malignant events in data set [7] (as compared to CD40L-specific mAbs, ref Anil Kumar et al., 2018) is reported as “no clinically malignant events”. The “Efficacy (PASI scores of psoriasis)” value is reported as “Ineffective” in data set [7] and “did not improve” in data set [7] (listed as bleselumab). Further, the results for the Adverse event entry in data set [7] and in data set [7] (listed as bleselumab) were “Transient elevations of liver transaminase enzymes” and “transient elevations in liver transaminase enzymes”, respectively.
